Experimental data as given in patent publication US10175256B2, “Compositions and methods utilizing lysophosphatidylcholine scaffolds” (National University Of Singapore, priority 2013, dated 2019).
Where “and” joins values, the source holds several entries; their conditions need not be identical. Identical values can stand only once.

Biological target: T1, mouse Mfsd2a (Mus musculus, UniProt Q9DA75)
T1 construct: expressed in transfected cells; host or cells: HEK293
T1 sequence (Q9DA75 1-534): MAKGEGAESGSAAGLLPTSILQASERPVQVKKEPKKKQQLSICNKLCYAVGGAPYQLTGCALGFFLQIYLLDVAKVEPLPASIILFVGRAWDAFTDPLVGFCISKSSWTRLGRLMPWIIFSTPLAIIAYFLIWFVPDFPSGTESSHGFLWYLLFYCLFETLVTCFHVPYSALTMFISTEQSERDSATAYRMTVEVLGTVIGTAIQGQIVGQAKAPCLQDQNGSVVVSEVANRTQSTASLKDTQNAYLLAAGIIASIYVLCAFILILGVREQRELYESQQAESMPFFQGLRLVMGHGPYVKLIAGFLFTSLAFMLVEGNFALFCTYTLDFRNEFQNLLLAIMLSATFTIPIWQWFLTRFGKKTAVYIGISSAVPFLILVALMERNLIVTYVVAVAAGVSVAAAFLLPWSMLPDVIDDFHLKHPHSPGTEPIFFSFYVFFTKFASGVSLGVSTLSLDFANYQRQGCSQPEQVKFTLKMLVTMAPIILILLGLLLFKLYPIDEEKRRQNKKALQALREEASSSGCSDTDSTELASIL
Assay: Cell-based free fatty acid transport/uptake in Mfsd2a expressing HEK293 cells (mass spectrometry, TLC; Table 1)
Details: Mfsd2a HEK293 cells, 100 uM fatty acid/BSA overnight
In short: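 HEK293 cells expressing mouse Mfsd2a, or mock controls, were incubated overnight with 100 μM BSA-complexed fatty acids. Lipids were extracted in hexane:isopropanol (3:2) and phospholipid species quantified by HPLC-MS/MS against spiked internal standards. For TLC, cells received 100 μM [^14C]-oleate overnight, and phospholipids and neutral lipids were resolved.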

- % DHA in PC + lysoPC: 0.03823% and 0.0379% and 0.03421%
- % DHA in PE + lysoPE: 10.42% and 11.02% and 9.771%
- % DHA in PI and lysoPI: 0.01451% and 0.01192% and 0.01113%
- % DHA in PS: 0.1262% and 0.1099% and 0.1138%
SMILES: CCCCCCCCCCCCCCCC(=O)O [Palmitic acid]
- LPI16:0 in total phospholipid: 0.004365 mol percent and 0.003505 mol percent and 0.0022 mol percent
- LPI18:0 in total phospholipid: 0.02606 mol percent and 0.0265 mol percent and 0.02588 mol percent
- LPI20:4 in total phospholipid: 0.001669 mol percent and 0.001542 mol percent and 0.001553 mol percent
- LPI22:6 in total phospholipid: 0.007831 mol percent and 0.008132 mol percent and 0.006212 mol percent
- Lyso PE16:0p in total phospholipid: 2.777 mol percent and 2.934 mol percent and 3.347 mol percent
- Lyso PE18:0p in total phospholipid: 0.434 mol percent and 0.5456 mol percent and 0.7875 mol percent
- Lyso PE20:0p in total phospholipid: 0.2604 mol percent and 0.1622 mol percent and 0.3221 mol percent
- LysoPC16:0e in total phospholipid: 0.004306 mol percent and 0.004045 mol percent and 0.00338 mol percent
- LysoPC16:0 in total phospholipid: 0.02231 mol percent and 0.02238 mol percent and 0.01839 mol percent
- LysoPC16:1 in total phospholipid: 0.006002 mol percent and 0.005731 mol percent and 0.005746 mol percent
- LysoPC18:0e in total phospholipid: 0.002349 mol percent and 0.002697 mol percent and 0.00142 mol percent
- LysoPC18:0 in total phospholipid: 0.005806 mol percent and 0.006675 mol percent and 0.006016 mol percent
- LysoPC18:1 in total phospholipid: 0.01311 mol percent and 0.01254 mol percent and 0.01251 mol percent
- LysoPC18:2 in total phospholipid: 0.001631 mol percent and 0.001146 mol percent and 0.001487 mol percent
- LysoPC20:4 in total phospholipid: 0.000587 mol percent and 0.000539 mol percent and 0.000608 mol percent
- LysoPC22:6 in total phospholipid: 0.000652 mol percent and 0.000809 mol percent and 0.000879 mol percent
- LysoPE16:1 in total phospholipid: 0.1736 mol percent and 0.1327 mol percent and 0.1253 mol percent
- LysoPE18:0 in total phospholipid: 0.1042 mol percent and 0.08847 mol percent and 0.1611 mol percent
- LysoPE18:1 in total phospholipid: 0.1215 mol percent and 0.07373 mol percent and 0.07159 mol percent
- PC32:0e in total phospholipid: 1.809 mol percent and 1.851 mol percent and 1.702 mol percent
- PC32:0 in total phospholipid: 2.456 mol percent and 2.444 mol percent and 2.298 mol percent
- PC32:1e in total phospholipid: 2.403 mol percent and 2.512 mol percent and 2.3 mol percent
- PC32:1 in total phospholipid: 9.104 mol percent and 9.244 mol percent and 8.731 mol percent
- PC32:2 in total phospholipid: 1.488 mol percent and 1.519 mol percent and 1.412 mol percent
- PC34:1e in total phospholipid: 4.813 mol percent and 4.891 mol percent and 4.611 mol percent
- PC34:1 in total phospholipid: 18.56 mol percent and 18.94 mol percent and 17.94 mol percent
- PC34:2e in total phospholipid: 1.486 mol percent and 1.537 mol percent and 1.423 mol percent
- PC34:2 in total phospholipid: 6.06 mol percent and 6.22 mol percent and 5.829 mol percent
- PC34:3e in total phospholipid: 0.2283 mol percent and 0.2319 mol percent and 0.2175 mol percent
- PC34:3 in total phospholipid: 0.615 mol percent and 0.6295 mol percent and 0.5976 mol percent
- PC36:1e in total phospholipid: 1.432 mol percent and 1.425 mol percent and 1.342 mol percent
- PC36:1 in total phospholipid: 2.54 mol percent and 2.547 mol percent and 2.409 mol percent
- PC36:2e in total phospholipid: 1.609 mol percent and 1.633 mol percent and 1.504 mol percent
- PC36:2 in total phospholipid: 5.692 mol percent and 5.815 mol percent and 5.439 mol percent
- PC36:3e in total phospholipid: 0.8012 mol percent and 0.8224 mol percent and 0.7603 mol percent
- PC36:3 in total phospholipid: 1.149 mol percent and 1.165 mol percent and 1.071 mol percent
- PC36:4e in total phospholipid: 0.4287 mol percent and 0.4448 mol percent and 0.4173 mol percent
- PC36:4 in total phospholipid: 0.3268 mol percent and 0.3193 mol percent and 0.308 mol percent
- PC36:5e in total phospholipid: 0.3253 mol percent and 0.3343 mol percent and 0.309 mol percent
- PC36:5 in total phospholipid: 0.05232 mol percent and 0.05663 mol percent and 0.05164 mol percent
- PC36:6 in total phospholipid: 0.05108 mol percent and 0.04821 mol percent and 0.04326 mol percent
- PC38:1e in total phospholipid: 0.3517 mol percent and 0.3555 mol percent and 0.3378 mol percent
- PC38:3e in total phospholipid: 0.4164 mol percent and 0.4068 mol percent and 0.3798 mol percent
- PC38:3 in total phospholipid: 0.5146 mol percent and 0.5317 mol percent and 0.5066 mol percent
- PC38:4e in total phospholipid: 0.4168 mol percent and 0.4143 mol percent and 0.3843 mol percent
- PC38:4 in total phospholipid: 0.4407 mol percent and 0.4455 mol percent and 0.4228 mol percent
- PC38:5e in total phospholipid: 0.3513 mol percent and 0.3625 mol percent and 0.3264 mol percent
- PC38:5 in total phospholipid: 0.2268 mol percent and 0.2451 mol percent and 0.2273 mol percent
- PC38:6 in total phospholipid: 0.1683 mol percent and 0.1727 mol percent and 0.1591 mol percent
- PC38:7 in total phospholipid: 0.1176 mol percent and 0.1195 mol percent and 0.1136 mol percent
- PC40:1e in total phospholipid: 0.1793 mol percent and 0.1879 mol percent and 0.168 mol percent
- PC40:2e in total phospholipid: 0.1944 mol percent and 0.1992 mol percent and 0.1788 mol percent
- PC40:3e in total phospholipid: 0.1397 mol percent and 0.1434 mol percent and 0.1332 mol percent
- PC40:4e in total phospholipid: 0.1237 mol percent and 0.1272 mol percent and 0.1205 mol percent
- PC40:5e in total phospholipid: 0.1172 mol percent and 0.1169 mol percent and 0.1115 mol percent
- PC40:5 in total phospholipid: 0.08233 mol percent and 0.08765 mol percent and 0.07997 mol percent
- PC40:6 in total phospholipid: 0.1131 mol percent and 0.1203 mol percent and 0.105 mol percent
- PC40:7 in total phospholipid: 0.1694 mol percent and 0.1653 mol percent and 0.1619 mol percent
- PE32:1 in total phospholipid: 0.4397 mol percent and 0.3146 mol percent and 0.3699 mol percent
- PE32:2 in total phospholipid: 0.09258 mol percent and 0.118 mol percent and 0.1193 mol percent
- PE34:1 in total phospholipid: 1.562 mol percent and 1.425 mol percent and 1.336 mol percent
- PE34:2 in total phospholipid: 1.088 mol percent and 0.9634 mol percent and 1.014 mol percent
- PE34p:1 in total phospholipid: 1.042 mol percent and 1.072 mol percent and 1.479 mol percent
